Laboratory results from patent US9765092B2, “Tricyclic piperidine compounds” (ACTELION PHARMACEUTICALS LTD, priority 2013, dated 2017).

Biological target: human TPH1 (Homo sapiens (Human), UniProt P17752)
Assay: Biochemical in vitro assay using fluorescence readout (TPH1 inhibition)
[1] = human TPH1, fluorescence readout
[2] = full length human TPH1, 40 μM L-tryptophan, 15° C., 60 minutes, fluorescence at 540 nm, mean if determined several times

Chain of human TPH1 (P17752 whole entry): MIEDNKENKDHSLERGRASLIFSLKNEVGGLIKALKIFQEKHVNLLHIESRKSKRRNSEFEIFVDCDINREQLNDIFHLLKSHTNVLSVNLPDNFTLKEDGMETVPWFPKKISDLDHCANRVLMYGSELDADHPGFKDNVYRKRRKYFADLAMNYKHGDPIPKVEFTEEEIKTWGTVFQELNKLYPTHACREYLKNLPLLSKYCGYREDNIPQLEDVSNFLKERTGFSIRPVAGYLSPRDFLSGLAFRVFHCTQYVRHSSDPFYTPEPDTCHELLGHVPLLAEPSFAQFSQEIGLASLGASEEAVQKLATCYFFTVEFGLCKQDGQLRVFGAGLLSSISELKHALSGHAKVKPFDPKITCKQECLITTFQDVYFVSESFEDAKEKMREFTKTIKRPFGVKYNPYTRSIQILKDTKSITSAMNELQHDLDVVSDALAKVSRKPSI

| SMILES | IC50 [1] | IC50 [2] |
| --- | --- | --- |
| Cc1nn2c3c(nc2s1)CCN(C(=O)COc1ccc(C#N)cc1Cl)C3c1scnc1C (stereo not drawn) [Example 1.32.2, 3-chloro-4-(2-(2-methyl-5-(4-methylthiazol-5-yl)-7,8-dihydro-[1,3,4]thiadiazolo[2′,3′:2,3]imidazo[4,5-c]pyridin-6(5H)-yl)-2-oxoethoxy)benzonitrile] | 0.083 µM |  |
| CCc1nc(N2CCCS2(=O)=O)ccc1OCC(=O)N1CCc2nc3sc(C(F)(F)F)nn3c2C1c1sc(C)nc1C (stereo not drawn) [Example 5.4.1, 1-(5-(2,4-dimethylthiazol-5-yl)-2-(trifluoromethyl)-7,8-dihydro-[1,3,4]thiadiazolo[2′,3′:2,3]imidazo[4,5-c]pyridin-6(5H)-yl)-2-((6-(1,1-dioxidoisothiazolidin-2-yl)-2-ethylpyridin-3-yl)oxy)ethanone] | 0.025 µM |  |
| Cc1ccc([C@H]2c3c(nc4sc(C)nn34)CCN2C(=O)COc2ccc(NS(C)(=O)=O)nc2Cl)c(F)c1 [Example 1.53.4] | 0.008 µM |  |
| Cc1nn2c3c(nc2s1)CCN(C(=O)COc1ccc(C(=O)N(C)C)nc1Cl)C3c1cncs1 (stereo not drawn) [Example 1.39.2, 6-chloro-N,N-dimethyl-5-(2-(2-methyl-5-(thiazol-5-yl)-7,8-dihydro-[1,3,4]thiadiazolo[2′,3′:2,3]imidazo[4,5-c]pyridin-6(5H)-yl)-2-oxoethoxy)picolinamide] | 0.069 µM |  |
| Cc1nn2c3c(nc2s1)CCN(C(=O)COc1ccc(N2CCOCC2)nc1Cl)C3c1cc(CN(C)C)cs1 (stereo not drawn) [Example 1.8.1, 2-((2-chloro-6-morpholinopyridin-3-yl)oxy)-1-(5-(4-((dimethylamino)methyl)thiophen-2-yl)-2-methyl-7,8-dihydro-[1,3,4]thiadiazolo[2′,3′:2,3]imidazo[4,5-c]pyridin-6(5H)-yl)ethanone] | 0.018 µM |  |
| Cc1ccc(OCC(=O)N2CCc3nc4sccn4c3C2c2cnn(-c3ccccc3)c2)cc1 (stereo not drawn) [Example 6.13.3, 1-(5-(1-phenyl-1H-pyrazol-4-yl)-7,8-dihydrothiazolo-[2′,3′:2,3]imidazo[4,5-c]pyridin-6(5H)-yl)-2-(p-tolyl-oxy)ethanone] | 0.053 µM |  |
| Cc1nn2c3c(nc2s1)CCN(C(=O)COc1ccc(N2CCOCC2)nc1Cl)C3c1csc(CN(C)C)c1 (stereo not drawn) [Example 1.69.1, 2-((2-Chloro-6-morpholinopyridin-3-yl)oxy)-1-(5-(5-((dimethylamino)-methyl)thiophen-3-yl)-2-methyl-7,8-dihydro-[1,3,4]thiadiazolo[2′,3′:2,3]imidazo[4,5-c]pyridin-6(5H)-yl)ethanone] |  | 0.051 µM |
| O=C(COc1cccc(C(F)(F)F)c1Cl)N1CCc2nc3sccn3c2C1c1nc2ccccc2s1 (stereo not drawn) [Example 6.12.5, 1-(5-(benzo[d]thiazol-2-yl)-7,8-dihydrothiazolo-[2′,3′:2,3]imidazo[4,5-c]pyridin-6(5H)-yl)-2-(2-chloro-3-(trifluoromethyl)phenoxy)ethanone] | 0.028 µM |  |
| COC(=O)c1ccc(OCC(=O)N2CCc3nc4sc(C)nn4c3C2c2ccc(C3CC3)cc2F)c(Cl)n1 (stereo not drawn) [Example 1.6.21, Methyl 6-chloro-5-(2-(5-(4-cyclopropyl-2-fluorophenyl)-2-methyl-7,8-dihydro-[1,3,4]thiadiazolo[2′,3′:2,3]imidazo[4,5-c]pyridin-6(5H)-yl)-2-oxoethoxy)picolinate] | 0.008 µM |  |
| Cc1cnc(C2c3c(nc4sc(C)nn34)CCN2C(=O)COc2ccc(C#N)cc2Cl)c(F)c1 (stereo not drawn) [Example 1.31.4, 3-chloro-4-(2-(5-(3-fluoro-5-methylpyridin-2-yl)-2-methyl-7,8-dihydro-[1,3,4]thiadiazolo[2′,3′:2,3]imidazo[4,5-c]pyridin-6(5H)-yl)-2-oxoethoxy)benzonitrile] | 0.049 µM |  |
| Cc1nn2c3c(nc2s1)CCN(C(=O)COc1ccc(S(C)(=O)=O)nc1Cl)C3c1ccc(Cl)cc1F (stereo not drawn) [Example 1.4.59, 1-(5-(4-chloro-2-fluorophenyl)-2-methyl-7,8-dihydro-[1,3,4]thiadiazolo[2′,3′:2,3]imidazo[4,5-c]pyridin-6(5H)-yl)-2-((2-chloro-6-(methylsulfonyl)pyridin-3-yl)oxy)ethan-1-one] | 0.027 µM |  |
| Cc1nn2c3c(nc2s1)CCN(C(=O)COc1ccc(Cl)cc1C)C3c1nc(-c2ccccc2)no1 (stereo not drawn) [Example 1.11.1, 2-(4-chloro-2-methylphenoxy)-1-(2-methyl-5-(3-phenyl-1,2,4-oxadiazol-5-yl)-7,8-dihydro-[1,3,4]thiadiazolo [2′,3′:2,3]imidazo[4,5-c]pyridin-6(5H)-yl)ethanone] | 0.035 µM |  |
| Cc1nn2c3c(nc2s1)CCN(C(=O)COc1ccc(C(F)(F)F)nc1Cl)C3c1sccc1F (stereo not drawn) [Example 1.23.3, 2-((2-chloro-6-(trifluoromethyl)pyridin-3-yl)oxy)-1-(5-(3-fluorothiophen-2-yl)-2-methyl-7,8-dihydro-[1,3,4]thiadiazolo [2′,3′:2,3]imidazo[4,5-c]pyridin-6(5H)-yl)ethanone] | 0.02 µM |  |
| Cc1nn2c3c(nc2s1)CCN(C(=O)COc1ccc(C2CC2)nc1Cl)C3c1ccc(Cl)cc1F (stereo not drawn) [Example 1.4.28, 1-(5-(4-Chloro-2-fluorophenyl)-2-methyl-7,8-dihydro-[1,3,4]thiadiazolo[2′,3′:2,3]imidazo[4,5-c]pyridin-6(5H)-yl)-2-((2-chloro-6-cyclopropylpyridin-3-yl)oxy)-ethanone] |  | 0.006 µM |
| Cc1nn2c3c(nc2s1)CCN(C(=O)COc1ccc(N2CCOCC2)nc1Cl)C3c1cncs1 (stereo not drawn) [Example 1.39.3, 2-((2-chloro-6-morpholinopyridin-3-yl)oxy)-1-(2-methyl-5-(thiazol-5-yl)-7,8-dihydro-[1,3,4]thiadiazolo[2′,3′:2,3]imidazo[4,5-c]pyridin-6(5H)-yl)ethanone] | 0.005 µM |  |
| Cc1noc(C)c1C1c2c(nc3sccn23)CCN1C(=O)COc1ccc(Cl)cc1Cl (stereo not drawn) [Example 6.5.2, 2-(2,4-dichlorophenoxy)-1-(5-(3,5-dimethylisoxazol-4-yl)-7,8-dihydrothiazolo[2′,3′:2,3]imidazo[4,5-c]pyridin-6(5H)-yl)ethanone] | 0.061 µM |  |
| Cc1nn2c3c(nc2s1)CCN(C(=O)COc1ccc(N2CCOCC2)nc1Cl)C3c1ncccc1F (stereo not drawn) [Example 1.35.1, 2-((2-chloro-6-morpholinopyridin-3-yl)oxy)-1-(5-(3-fluoropyridin-2-yl)-2-methyl-7,8-dihydro-[1,3,4]thiadiazolo [2′,3′:2,3]imidazo[4,5-c]pyridin-6(5H)-yl)ethanone] | 0.006 µM |  |
| Cc1cc(Cl)ccc1OCC(=O)N1CCc2nc3sccn3c2C1c1ccc(Cl)cc1F (stereo not drawn) [Example 6.4.3, 1-(5-(4-chloro-2-fluorophenyl)-7,8-dihydrothiazolo-[2′,3′:2,3]imidazo[4,5-c]pyridin-6(5H)-yl)-2-(4-chloro-2-methylphenoxy)ethanone] | 0.006 µM |  |
| Cc1nn2c3c(nc2s1)CCN(C(=O)COc1ccc(F)cc1C)C3c1ccc(C2CC2)cc1F (stereo not drawn) [Example 1.6.10, 1-(5-(4-cyclopropyl-2-fluorophenyl)-2-methyl-7,8-dihydro-[1,3,4]thiadiazolo[2′,3′:2,3]imidazo[4,5-c]pyridin-6(5H)-yl)-2-(4-fluoro-2-methylphenoxy)ethanone] | 0.006 µM |  |
| Cc1nn2c3c(nc2s1)CCN(C(=O)COc1cccnc1Cl)C3c1ccc(C2CC2)cc1F (stereo not drawn) [Example 1.6.11, 2-((2-chloropyridin-3-yl)oxy)-1-(5-(4-cyclopropyl-2-fluorophenyl)-2-methyl-7,8-dihydro-[1,3,4]thiadiazolo[2′,3′:2,3]imidazo[4,5-c]pyridin-6(5H)-yl)ethanone] | 0.014 µM |  |
| Cc1nn2c3c(nc2s1)CCN(C(=O)COc1ccc(NS(C)(=O)=O)nc1Cl)C3c1ccc(C(C)(C)O)cc1F (stereo not drawn) [Example 1.80.1, N-(6-chloro-5-(2-(5-(2-fluoro-4-(2-hydroxypropan-2-yl)phenyl)-2-methyl-7,8-dihydro-[1,3,4]thiadiazolo[2′,3′:2,3]imidazo[4,5-c]pyridin-6(5H)-yl)-2-oxoethoxy)pyridin-2-yl)methanesulfonamide] | 0.098 µM |  |
| CCc1cc(Cl)ccc1OCC(=O)N1CCc2nc3sccn3c2C1c1c(C)nn(C)c1C (stereo not drawn) [Example 6.15.4, 2-(4-chloro-2-ethylphenoxy)-1-(5-(1,3,5-trimethyl-1H-pyrazol-4-yl)-7,8-dihydrothiazolo[2′,3′:2,3]imidazo[4,5-c]pyridin-6(5H)-yl)ethanone] | 0.102 µM |  |
| Cc1nn2c3c(nc2s1)CCN(C(=O)COc1ccc(N2CCOCC2)nc1Cl)C3c1ccc(CN(C)C)s1 (stereo not drawn) [Example 1.36.1, 2-((2-Chloro-6-morpholinopyridin-3-yl)oxy)-1-(5-(5-((dimethylamino)-methyl)thiophen-2-yl)-2-methyl-7,8-dihydro-[1,3,4]thiadiazolo[2′,3′:2,3]imidazo[4,5-c]pyridin-6(5H)-yl)-ethanone] |  | 0.384 µM |
| CNC(=O)c1ccc(C2c3c(nc4sc(C)nn34)CCN2C(=O)COc2ccc(C(=O)N(C)C)nc2Cl)o1 (stereo not drawn) [Example 1.42.1, 6-chloro-N,N-dimethyl-5-(2-(2-methyl-5-(5-(methylcarbamoyl)furan-2-yl)-7,8-dihydro-[1,3,4]thiadiazolo[2′,3′:2,3]imidazo[4,5-c]pyridin-6(5H)-yl)-2-oxoethoxy)picolinamide] | 0.049 µM |  |
| Cc1nn2c3c(nc2s1)CCN(C(=O)COc1ccc(N2CCOCC2)nc1Cl)C3c1ncc(C(=O)N(C)C)s1 (stereo not drawn) [Example 1.37.5, 2-(6-(2-((2-Chloro-6-morpholinopyridin-3-yl)oxy)acetyl)-2-methyl-5,6,7,8-tetrahydro-[1,3,4]thiadiazolo[2′,3′:2,3]imidazo[4,5-c]pyridin-5-yl)-N,N-dimethylthiazole-5-carboxamide] |  | 0.009 µM |
| Cc1nn2c3c(nc2s1)CCN(C(=O)COc1ccc(C(=O)N(C)C)nc1Cl)C3c1cnc(N(C)C)s1 (stereo not drawn) [Example 1.22.9, 6-Chloro-5-(2-(5-(2-(dimethylamino)thiazol-5-yl)-2-methyl-7,8-dihydro-[1,3,4]thia-diazolo[2′,3′:2,3]imidazo[4,5-c]pyridin-6(5H)-yl)-2-oxoethoxy)-N,N-dimethylpicolinamide] |  | 0.009 µM |
| O=C(COc1ccc(CN2CCOCC2)nc1Cl)N1CCc2nc3sccn3c2C1c1ccc(Cl)cc1F (stereo not drawn) [Example 6.4.5, 1-(5-(4-chloro-2-fluorophenyl)-7,8-dihydrothiazolo-[2′,3′:2,3]imidazo[4,5-c]pyridin-6(5H)-yl)-2-((2-chloro-6-(morpholinomethyl)pyridin-3-yl)oxy)ethanone] | 0.007 µM |  |
